Experimental data from US20090137631A1, “METHODS AND PHARMACEUTICAL COMPOSITIONS FOR REGULATION OF G- AND/OR GC-RICH NUCLEIC ACID EXPRESSION” (NATIONAL YANG-MING UNIVERSITY, priority 2007, published 2009).
“And” between values parts separate entries of the source, which are not always exact repeats. Equal values may be shown once.

Assays:
[1] = system: LPS induced TNF-α secretion by monocytes; conditions: Sampaio et al., 1991; cited from earlier work
bFGF promoter = assay: bFGF promoter-controlled EGFP reporter expression in U87-bFGF-EGFP cells; type: cell-based, human; conditions: 0.1˜10 μg/ml, 3 hr, dose-dependent
Procedure: To evaluate the effect of thalidomide on the transcription driven by bFGF promoter, pbFGF-EGFP plasmid, containing bFGF promoter to drive the expression of enhanced green fluorescence protein (EGFP), was stably transfected into U-87 MG to get U87-bFGF-EGFP cell. […] Approximately 2×10^5 U-87 MG cells were plated in 6-well plates (Falcon) 24 hr before transfection and exposed to 3 μg total DNA (plasmid pbFGF-EGFP) and 3 μl Lipofectamine 2000 (Invitrogen Corp.) in DMEM without FBS according to the manufacture's brochure of Lipofectamine 2000. After cultured at 37° C. in a humidified incubator of 5% CO2-95% air for 48 hr, cells were trypsinized and passaged into DMEM with 10% FBS (20× dilutions). Stable transfectants (U87-bFGF-EGFP cells) were selected by using geneticin (800 μg/ml; Merck Biosciences) for 1 month.
U87-bFGF-EGFP cells were treated with indicated concentrations (0, 0.1, 1 and 10 μg/ml) of free-form thalidomide for 3 hr. The fluorescence of EGFP was measured by flow cytometry (FACS Calibur, BD Biosciences). […] The RNA levels of EGFP were analyzed by real-time RT-PCR and GAPDH was used as an internal control.

[2] = system: genes with GC-rich promoter; conditions: Drucker et al., 2003; cited from earlier work
HMW-IRES = assay: Bicistronic luciferase IRES activity, U87-HMW-IRES cells; type: cell-based, human; conditions: 0.1˜10 μg/ml, 12 hr
Text: (§1) To examine whether the G- and/or GC-rich region in IRES of N-terminal extension of bFGF transcript could also be regulated by thalidomide, plasmids pHMW-IRES and pLMW-IRES (FIG. 5A) were designed using bicistronic vector as previous described (Creancier et al., 2000). There were two luciferase genes, Renilla luciferase (LucR) and firefly luciferase (LucF), which were controlled by the cytomegalovirus (CMV) promoter and separated by the LMW-IRES fragment (SEQ ID NO. 12) and HMW-IRES fragment (SEQ ID NO. 15) in plasmids pLMW-IRES or pHMW-IRES (FIG. 5A), respectively. […] Approximately 2×10^5 U-87 MG cells were plated in 6-well plates (Falcon) 24 hr before transfection and exposed to 3 μg total DNA (plasmid pLMW-IRES or pHMW-IRES) and 3 μl Lipofectamine 2000 (Invitrogen, Carlsbad, USA) in DMEM without FBS according to the manufacture's brochure of Lipofectamine 2000. […]
(§2) U87-LMW-IRES and U87-HMW-IRES cells were treated with indicated concentrations (0, 0.1, 1 and 10 μg/ml) of liposomal thalidomide for 12 hr, and the two luciferase activities were measured in each cell extracts by scintillation counting in a Victor 2 1420 Multilabel Counter (Wallac, PerkinElmer). The IRES activity was determined by calculating the LucR/LucF ratios (the ratio of renilla to firefly luciferase activity) normalized by the untreated control.

G-rich bFGF DNA fragment = assay: UV-VIS absorbance of thalidomide after incubation with bFGF DNA fragments; type: binding, human; conditions: G-rich fragment (91% GC) versus non-G-rich control fragment (44% GC)
Procedure: The G-rich fragment with 91% GC content and non-G-rich control fragment with 44% GC content were designed from the promoter region of bFGF (FIG. 6A). To examine whether thalidomide could interact preferentially with the G- and/or GC-rich region of bFGF, the ultraviolet-visible (UV-VIS) absorbance of thalidomide was assayed using a Hitachi U2000 Spectrophotometer with the scanning range from 330 to 190 nm. The absorbance of thalidomide would be diminished by bound tightly with the secondary structure of a DNA (Usha et al., 2005).

[3] = clinical daily dose 200 to 800 mg, maximum 1200 mg; cited from earlier work
[4] = system: bFGF RNA levels in U-87 MG cells
Procedure: The U-87 MG cells were purchased from American Type Culture Collection (ATCC, Rockville, Md.) and maintained in Dulbecco's modified Eagle's medium (DMEM; Gibco) containing 10% heat inactivated fetal bovine serum (FBS; Gibco) and antibiotics, such as penicillin G (Sigma-Aldrich) and streptomycin (Sigma-Aldrich), at 37° C. in a humidified incubator of 5% CO2-95% air. Thalidomide (TYY Biopharm, Taiwan) was dissolved in dimethyl sulfoxide (DMSO; Sigma-Aldrich) first to make a stock solution of 50 mg/ml, and then diluted to various, desired concentrations with medium. The maximum of the final concentration of DMSO in the medium was 0.02%.
Real-time RT-PCR analysis was used to assess the RNA levels of bFGF in U-87 MG cells. After being treated with indicated concentrations (0, 0.1, 1 and 10 μg/ml) of thalidomide for 3 hr and 12 hr, U-87 MG cells were washed twice with ice-cold phosphate buffered saline (PBS) and RNA was extracted by using RNA-Bee™ RNA isolation solvent (Tel-test). Total RNA (5 μg) was used to prepare cDNA by using AMV reverse transcriptase (Promega). The reverse-transcribed cDNA samples were analyzed by real-time PCR using ABI Prism 7700 Sequence Detection System (Applied Biosystems) and the SYBR Green Master Mix kit (Applied Biosystems). […]

U-87 MG cells [5] = assay: Hanging drop spheroid aggregation assay; type: cell-based, human; conditions: 0.1˜10 μg/ml, 48 hr, dose-dependently
Procedure: For hanging drop assay, approximately 1000 U-87 MG cells per 20 μl of cell suspension in culture medium (DMEM with 10% FBS) with indicated concentrations (0, 0.1, 1 and 10 μg/ml) of free-form thalidomide were spotted on the cover of a 6-cm culture dish (Falcon). The cover was returned to its top position with the cell suspension droplet facing down toward the bottom dish, which contained 5 ml of DMEM for maintenance of moisture during incubation. […] Each spheroid was photographed by using phase-contrast microscopy. The aggregation percentage was assayed by calculating the aggregation ability from 20 spheroids for each assay condition. The cell aggregates formed in spheroid culture was abolished by free-form thalidomide dose-dependently (FIG. 3D and FIG. 3E).

G-rich hTERT promoter = conditions: Drucker et al., 2003; cited from earlier work
U-87 MG cells [6] = assay: Soft agar colony formation assay (anchorage-independent growth); type: cell-based, human; conditions: 2 weeks; for colony-forming ability in soft agar (anchorage-independent growth): 0.1˜10 μg/ml
Procedure: Because bFGF was known to promote cell transformation (Vagner et al., 1996), the soft agar colony formation assay (Murphy et al., 1992) and hanging drop method (Kelm et al., 2003) were used to assess the effects of thalidomide on anchorage-independent and three-dimensional growth abilities of U-87 MG cells, respectively. The colony forming assay was performed according to a two-layer agar technique (Murphy et al., 1992). The bottom layer consisted of 0.3 ml of DMEM with 10% FBS and 0.5% (w/v) agarose (Amresco). Approximately 1000 U-87 MG cells were added to the same medium containing 10% FBS and 0.3%) (w/v) low-melting agarose (Amresco) plus indicated concentrations (0, 0.1, 1 and 10 μg/ml) of free-form thalidomide, and plated in 24-well plates (Costar, Corning) onto the base layer. […] Colony-forming ability (size, >0.1 mm) was measured.

U-87 MG cells [7] = assay: Resazurin cell proliferation assay; type: cell-based, human; conditions: 0˜100 μg/ml, 72 hr (FIG. 3A)
Procedure: Cell proliferation ability was assayed using a resazurin assay (Nociari et al., 1998), in which resazurin dye was used as a redox indicator to detect cell growth, not cell death. Resazurin sodium (Sigma-Aldrich) stock solution in PBS (5 mM) was prepared, and the working solution (50 μM) was diluted from the stock using DMEM (Gibco) without FBS. Approximately 3000 U-87 MG cells were seeded onto 96-well plates (Costar, Corning), allowed to attach at 37° C. in a humidified incubator of 5% CO2-95% air for 16 hr, and treated with indicated concentrations (0, 0.1, 1, 10, and 100 μg/ml) of free-form and liposomal thalidomide for 72 h. For resazurin assay, the culture medium was removed and freshly diluted resazurin working solution (100 μl) was added into each well. Following incubation at 37° C. in a humidified incubator of 5% CO2-95% air for 2 hr, the resazurin dye was reduced by the activity of living cells, and the reduced form of resazurin was determined at a fluorescence excitation wavelength 530 nm and emission wavelength 590 nm by a Victor 2 1420 Multilable Counter (Wallac, PerkinElmer).

[8] = system: HMW and LMW bFGF isoforms in U-87 MG cells; conditions: 1 and 10 μg/ml, 12 hr
Procedure: Immunoblot (or western blot) analysis was therefore performed to analyze the amount of different bFGF isoforms and GAPDH was used as die internal control, which level would not be affected by thalidomide. After being treated with indicated concentrations (0, 0.1, 1 and 10 μg/ml) of free-form and liposomal thalidomide, U-87 MG cell lysate was prepared using lysis buffer (50 mM Tris [hydroxymethyl] aminomethane (Tris; USB), 1% (v/v) TritonX-100 (Sigma-Aldrich), 150 mM sodium chloride (NaCl; J. T. Baker), 1 mM ethylenediaminetetraacetic acid (EDTA; Sigma-Aldrich), 1 mM phenylmethylsulphonyl fluoride (PMSF; Sigma-Aldrich). Cell lysates (2 μg) containing proteins were separated with using 15% polyacrylamide gel electrophoresis and transferred to a polyvinylidene fluoride (PVDF) membrane (PerkinElmer). The membrane was incubated with polyclonal rabbit anti human bFGF antibody (ab16828, Abeam) at 1:200 dilution or anti-GAPDH antibody (ab9482, Abeam) at 1:10000 dilution, which was used as an internal control, followed by horseradish peroxidase-conjugated anti-IgG secondary antibody (Jackson ImmunoResearch) at 1:5000 dilution. The enhanced chemiluminescent (ECL; PerkinElmer) detection method (Amersham) was used for blotting analysis.

[9] = Stability of thalidomide in culture medium alone (9 hr pre-incubation, then bFGF transcript readout); conditions: 0.1˜10 μg/ml, 9 hr at 37° C. in culture medium before 3 hr on cells
Procedure: In order to test the stability of thalidomide in the culture medium alone, the thalidomide stock solution was diluted with fresh culture medium to 0.1˜10 μg/ml and incubated at 37° C. in a humidified incubator of 5% CO2-95% air for 9 hr before being added to the U-87 MG cells for 3 hr.

[10] = system: bFGF proteins in U-87 MG cells; assay: Immunofluorescence staining of bFGF protein (FACS and fluorescence microscopy); type: cell-based, human
Procedure: U-87 MG cells were treated with indicated concentrations (0, 0.1, 1 and 10 μg/ml) of free-form and liposomal thalidomide and fixed in 4% (w/v) paraformaldehyde (Sigma-Aldrich) in PBS for 15 min, permeabilized with 0.01% (v/v) Triton X-100 (Sigma-Aldrich) or 0.5% (v/v) saponin (Sigma-Aldrich) in PBS for 30 min at room temperature. The cells were subsequently treated with 0.5 μg polyclonal rabbit anti human bFGF antibody (ab16828, Abeam) for 30 min at room temperature, washed, followed by staining with FITC-conjugated goat anti-rabbit IgG (Jackson ImmunoResearch) at 1:200 dilution for 30 min. Hoechst 33258 (Sigma-Aldrich) was used as a nuclear marker. The cells were then washed and visualized using a fluorescence microscope (Olympus Optical Co, Tokyo, Japan) or analyzed using the BD FACSCalibur™ flow cytometer (BD Biosciences). The relative expression level of cellular bFGFs was calculated by normalized the mean fluorescence value of each treatment with the empty liposome treated control. […] Because HMW bFGFs were the major isoforms localized in nucleus (Renko et al., 1990), a decrease of its signal intensity in this compartment might reflect a reduced expression of HMW bFGFs.

LMW-IRES = assay: Bicistronic luciferase IRES activity, U87-LMW-IRES cells; type: cell-based, human; conditions: 0.1˜10 μg/ml, 12 hr
Text: as §1, §2

[11] = listed as free-form thalidomide

**Q.** With `O=C1CCC(N2C(=O)c3ccccc3C2=O)C(=O)N1` (racemic) [thalidomide, 2-(2,6-dioxo-3-piperidinyl)-1H-iso-indole-1,3(2H)-dione] as the compound, how does the “concentration inhibiting LPS induced TNF-α secretion” value [1] read?
**A.** The value was 0.3 µg/mL.

**Q.** What about the “EGFP fluorescence (flow cytometry)” value (bFGF promoter) of the same compound?
**A.** The value was “diminish”.

**Q.** And the “EGFP transcripts (real-time RT-PCR)” value (bFGF promoter)?
**A.** Its value is “diminish”.

**Q.** And the “concentration down-regulating transcripts levels for genes with GC-rich promoter” value [2]?
**A.** Its value is “over 12.5 μg/ml”.

**Q.** And the “HMW-IRES activity (LucR/LucF ratio)” value (HMW-IRES)?
**A.** Its value is “down regulated”.

**Q.** What about the “HMW-IRES activity (LucR/LucF ratio)” value (HMW-IRES; listed as Thalidomide) of the same compound?
**A.** The value was “alter the IRES activity in a dose-dependent manner”.

**Q.** What about the “quench of the absorbance at 230 nm” value (G-rich bFGF DNA fragment) of the same compound?
**A.** Its value is “more severe quench”.

**Q.** What about the serum concentration [3] of the same compound?
**A.** The serum concentration was 1800 to 10000 ng/mL.

**Q.** What about the “bFGF RNA levels” value ([4]; 0.1˜10 μg/ml, 3 hr) of the same compound?
**A.** Its value is “markedly reduced”.

**Q.** And the “inhibitory effect on bFGF expression (RNA)” value ([4]; 12 hr treatment)?
**A.** The value was “disappeared”.

**Q.** What about the “cell aggregates formed in spheroid culture” value (U-87 MG cells [5]) of the same compound?
**A.** Its value is “efficiently inhibited”.

**Q.** And the “cell aggregates formed in spheroid culture” value (U-87 MG cells [5]; [11])?
**A.** Its value is “abolished”.

**Q.** And the “concentrations used to suppress the G-rich hTERT promoter” value (G-rich hTERT promoter)?
**A.** Its value is 12.5 µg/mL and 25 µg/mL.

**Q.** What about the “colony-forming ability in soft agar (anchorage-independent growth)” value (U-87 MG cells [6]) of the same compound?
**A.** The value was “efficiently inhibited”.

**Q.** What about the “colony-forming ability in soft agar (anchorage-independent growth)” value (U-87 MG cells [6]; [11]) of the same compound?
**A.** Its value is “dose-dependent response”.

**Q.** And the “effective concentration on colony-forming ability in soft agar” value (U-87 MG cells [6])?
**A.** Its value is 0.1 µg/mL.

**Q.** And the “suppression of the proliferation of U-87 MG cells” value (U-87 MG cells [7])?
**A.** The value was “ineffectiveness”.

**Q.** And the “decrease of the HMW bFGFs compared with LMW bFGFs” value [8]?
**A.** The value was “more dramatic than that of LMW ones”.

**Q.** And the “activity after incubation in culture media (stability)” value [9]?
**A.** Its value is “completely lost its activity”.

**Q.** What about the “total level of bFGF proteins” value ([10]; FACS, 12 hr (FIG. 2A)) of the same compound?
**A.** Its value is “down-regulated”.

**Q.** And the “nuclear level of bFGF proteins” value ([10]; fluorescence microscopy, 12 hr (FIG. 2B))?
**A.** Its value is “down-regulated”.

**Q.** What about the “LMW-IRES activity (LucR/LucF ratio)” value (LMW-IRES) of the same compound?
**A.** Its value is “down regulated”.

**Q.** And the “LMW-IRES activity (LucR/LucF ratio)” value (LMW-IRES; listed as Thalidomide)?
**A.** The value was “alter the IRES activity in a dose-dependent manner”.
